Reference: patent US8268836B2, “Compound useful as a c-Met inhibitor” (Eli Lilly and Company, priority 2010, dated 2012)
Where a name gives a salt, the structure may show the parent alone.

Key:
cMet enzyme = cMet enzyme (Homo sapiens, UniProt P08581); test: cMet Homogeneous Time Resolved Fluorescence (HTRF) in vitro assay; assay type: biochemical; details: relative IC50; read-out: c-Met IC50 (HTRF)
Source text: This assay is based on HTRF technology and it is used to detect the phosphorylation of biotin labeled tyrosine peptide by cMet enzyme. After the reaction is completed, XL665 labeled streptavidin is used to recognize the biotin unit and a Europium (Eu3+) labeled anti-phospho-tyrosine antibody is used to recognize the phosphorylated tyrosine. The detection process relies on the transfer of energy between the excited Eu3+ and the XL665 labeled streptavidin. The aim of this protocol is to calculate the ability of test compounds to inhibit the phosphorylation of the product of this reaction and calculate their relative IC50 values.
A reference compound, if desired, may be prepared as a 1 mM stock solution in 100% DMSO and test compounds are prepared as 10 mM stock solutions in 100% DMSO. 1 mM reference compound and 10 mM test compounds are pre-diluted to 8 μM and 80 μM 10% DMSO solutions in a 96-well dilution plate. Compounds are serially diluted (1:3) using Tecan Freedom EVO 200 and 10-point dilution curves are generated for each of the compounds tested. 10 μL of serially diluted compounds are transferred to a 96-well assay plate using Temo (Tecan). […] The assay plate is incubated at RT for 60 min before reading the fluorescence signals at 620 nm emission and 665 nm […] in a Victor3 instrument (PerkinElmer Corporation). […]

[1] = biological target: T1, Met (pY1349) in NCl-H460 cells (Homo sapiens, UniProt P08581); test: HGF stimulated Met (pY1349) NCI-H460 cell-based ELISA; details: HGF 100 ng/mL stimulated NCI-H460 cells; read-out: relative IC50, H460 assay (c-Met phosphorylation)
T1 construct: host or cells: NCI-H460
T1 sequence (P08581 25-1390): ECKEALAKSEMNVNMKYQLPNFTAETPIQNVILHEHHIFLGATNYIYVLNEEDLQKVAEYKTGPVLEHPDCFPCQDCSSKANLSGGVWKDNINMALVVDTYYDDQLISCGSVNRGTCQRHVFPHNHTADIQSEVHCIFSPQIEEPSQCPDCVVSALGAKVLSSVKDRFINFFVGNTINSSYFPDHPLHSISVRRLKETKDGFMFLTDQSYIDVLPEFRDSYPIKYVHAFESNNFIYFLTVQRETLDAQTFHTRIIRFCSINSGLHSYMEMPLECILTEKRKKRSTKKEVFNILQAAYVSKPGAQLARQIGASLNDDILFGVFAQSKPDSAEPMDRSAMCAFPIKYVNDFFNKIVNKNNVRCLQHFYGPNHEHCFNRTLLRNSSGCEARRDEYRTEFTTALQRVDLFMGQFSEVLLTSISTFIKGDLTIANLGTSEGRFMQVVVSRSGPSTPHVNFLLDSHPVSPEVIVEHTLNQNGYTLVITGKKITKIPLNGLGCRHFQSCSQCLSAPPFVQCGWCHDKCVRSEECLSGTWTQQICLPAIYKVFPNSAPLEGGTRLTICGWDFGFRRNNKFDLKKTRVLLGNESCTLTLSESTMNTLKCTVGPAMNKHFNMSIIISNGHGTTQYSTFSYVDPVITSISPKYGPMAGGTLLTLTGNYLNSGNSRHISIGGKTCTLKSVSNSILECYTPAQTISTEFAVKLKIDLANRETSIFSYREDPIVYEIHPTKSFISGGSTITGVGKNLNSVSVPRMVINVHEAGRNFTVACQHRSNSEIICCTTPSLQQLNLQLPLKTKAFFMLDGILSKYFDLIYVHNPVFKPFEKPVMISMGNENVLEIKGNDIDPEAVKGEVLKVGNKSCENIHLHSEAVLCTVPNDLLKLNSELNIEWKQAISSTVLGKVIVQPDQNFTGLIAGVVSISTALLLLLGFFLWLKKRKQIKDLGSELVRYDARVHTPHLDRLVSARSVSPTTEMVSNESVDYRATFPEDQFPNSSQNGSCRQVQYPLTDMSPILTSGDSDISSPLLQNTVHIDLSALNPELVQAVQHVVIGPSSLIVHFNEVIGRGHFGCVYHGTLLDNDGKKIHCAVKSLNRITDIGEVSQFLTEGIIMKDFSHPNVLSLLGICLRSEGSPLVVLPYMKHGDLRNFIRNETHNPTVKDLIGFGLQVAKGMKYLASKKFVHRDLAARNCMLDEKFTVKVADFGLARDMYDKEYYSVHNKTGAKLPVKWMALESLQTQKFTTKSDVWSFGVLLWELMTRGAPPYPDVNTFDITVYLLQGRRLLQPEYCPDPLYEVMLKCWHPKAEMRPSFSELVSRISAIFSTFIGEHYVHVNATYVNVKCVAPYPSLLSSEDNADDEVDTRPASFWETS
Description: NCl—H460 cells (purchased from ATCC) are cultured in RPMI 1640 media (Invitrogen) supplemented with 10% Fetal Bovine Serum (FBS) and plated (prior to becoming 70% confluent) in 96-well flat-bottom plates at a density of 20,000 cells per well in 80 μL volume. The cells are then incubated overnight in a cell culture incubator (5% CO2, 95% Relative Humidity (RH) and 37° C.) and allowed to attach to the plate. The following morning the cells are washed with 2 volumes of a Reduced Serum Media (RSM, RPMI 1640 media supplemented with 0.5% FBS). After removal of the last wash, 80 μL of RSM is added to each well of the cell plates. The cell plates are incubated for 2.5 h in a cell culture incubator, and then dosed with compounds. Compound inhibitors are first solubilized at 10 mM in 100% DMSO and then diluted to 100 μM with 2% DMSO RSM. […] After 1 h capture (at RT) the MSD® plate wells are washed with 1× Tris Wash Buffer, and then 150 μL of 1× Read Buffer T (with surfactant, MSD®) is added. Immediately after the addition of the Read Buffer, the plates are analyzed with a SECTOR 6000 MSD® Imager plate reader. Relative IC50 values are determined using MSD activity units by calculating percent inhibition with respect to on-plate “MIN” and “MAX” controls and then fitting the percent inhibition values and ten-point dose response data to a four-parameter logistic equation.

cMet enzyme, sequence (P08581 25-1390): as above

Cn1cc(-c2ccc3nnc(Sc4ccc5nn(C)cc5c4)n3n2)cn1 [mesylate salt form of example 1]
IC50 (cMet enzyme): 25 nM
IC50 [1]: 38 nM
